Data published in patent US20220073496A1, “NOVEL QUINOLINE DERIVATIVE INHIBITOR” (Nanjing Transthera Biosciences Co., Ltd., priority 2018, published 2022).
pIC50: −log10 of the molar value.

How the values were obtained:
[1] = molecular target: T1, Tyro-3 (h) (Homo sapiens, UniProt Q06418); test: Enzymatic activity test, Tyro-3 (h); format: biochemical; conditions: 10 μM [γ-33P]-ATP, 40 minutes, room temperature
T1 construct: purchased
T1 sequence (Q06418 41-890): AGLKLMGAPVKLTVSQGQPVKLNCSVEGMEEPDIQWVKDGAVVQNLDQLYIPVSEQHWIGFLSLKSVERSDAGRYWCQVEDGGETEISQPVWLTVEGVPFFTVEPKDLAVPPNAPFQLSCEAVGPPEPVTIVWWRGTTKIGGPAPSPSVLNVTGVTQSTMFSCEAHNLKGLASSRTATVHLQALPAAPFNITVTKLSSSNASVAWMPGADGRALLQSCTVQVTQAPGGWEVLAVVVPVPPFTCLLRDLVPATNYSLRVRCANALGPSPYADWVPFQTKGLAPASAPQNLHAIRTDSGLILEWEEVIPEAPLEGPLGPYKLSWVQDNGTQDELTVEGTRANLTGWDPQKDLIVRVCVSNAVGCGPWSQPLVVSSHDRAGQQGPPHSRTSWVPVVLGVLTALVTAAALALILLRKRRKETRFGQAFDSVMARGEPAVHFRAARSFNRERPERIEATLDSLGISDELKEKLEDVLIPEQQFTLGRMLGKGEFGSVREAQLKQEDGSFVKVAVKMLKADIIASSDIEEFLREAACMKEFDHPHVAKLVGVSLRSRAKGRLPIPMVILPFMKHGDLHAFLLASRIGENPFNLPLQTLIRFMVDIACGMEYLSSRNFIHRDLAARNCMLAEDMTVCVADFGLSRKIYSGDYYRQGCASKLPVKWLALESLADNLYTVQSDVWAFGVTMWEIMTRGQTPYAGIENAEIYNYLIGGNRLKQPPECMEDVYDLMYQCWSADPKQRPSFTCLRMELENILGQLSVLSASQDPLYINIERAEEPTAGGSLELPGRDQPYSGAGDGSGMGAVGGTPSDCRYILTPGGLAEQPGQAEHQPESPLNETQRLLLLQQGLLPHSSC
Experimental: Assay 3: Enzymatic Activity Test of the Compounds of the Present Invention
(§1) Test substances: the compounds of the present invention, wherein the structures and preparations thereof were as described above.
(1) Preparation of the Compound Stock Solution
The compound was dissolved in 100% DMSO to prepare a stock solution with a maximum concentration of 500 μM.
(2) Preparation of the Compound Working Solution
The compound stock solution was diluted to final concentrations of 500, 150, 50, 15, 5, 1.5, 0.5, 0.15 and 0.05 μM to become the compound working solutions (50×).
(3) Preparation of Different Enzyme Reaction Solutions
The Tyro3 (h) enzyme was dissolved in 8 mM MOPS (pH 7.0), 0.2 mM EDTA, 1 mM MnCl2, and 250 μM KVEKIGEGTYGVVYK to prepare an enzyme solution having a final concentration of 38 nM. The enzymatic reaction was activated by using 10 mM magnesium acetate and 10 μM [γ-^33P]-ATP to form an Mg/ATP mixed solution.
In a 384-well plate, the compound working solution was added to final concentrations of 10000, 3000, 1000, 300, 100, 30, 10, 3, and 1 nM. Then different enzyme reaction solutions prepared according to the above conditions were added. The incubation was carried out for 40 minutes at room temperature. The test was terminated by the addition of a 0.5% phosphoric acid solution. 10 μL of the reaction solution was taken and dropped to the P30 filter paper. The filter paper was washed 4 times with 0.425% phosphoric acid solution and once with methanol, and then placed on a scintillation counter. The […] IC50 values were calculated using GraphPad 5.0 software.

[2] = Stability in liver microsome of mice; format: in vitro ADME; conditions: liver microsomes; Mouse liver microsome 0.5 mg protein/mL, compound 1 μM, 37° C.
Experimental: Assay 1: Stability assessment of the compounds of the present invention in liver microsome of mice and dogs
as §1
The composition of the incubation system:
Preparation of Test Substances:
An appropriate amount of the compound was accurately weighed and dissolved in DMSO to prepare a 5.0 mM stock solution. The 5.0 mM stock solution was diluted to 1.0 mM with DMSO, and finally diluted with water to a 10 μM test substance working solution for use (the DMSO content in the reaction system was 0.1%).
(1) The liver microsome (20 mg protein/mL) was taken out from the −80° C. refrigerator, pre-incubated at 37° C. with a water-bathing constant temperature vibrator for 3 minutes, and melted for use.
(2) A mixed solution of the incubation system (excluding compounds and β-NADPH) according to the above “composition of the incubation system” for the assay was prepared, and pre-incubated at 37° C. with a water-bathing constant temperature vibrator for 2 minutes.
(3) Control group (excluding β-NADPH): 30 μL of water and 30 μL of compound working solution (10 μM) were added to 240 μL of the mixed solution of the incubation system of step (2), and vortexed for 30 seconds to mix well. The total reaction volume was 300 μL. A duplicate sample was prepared. The sample was incubated at 37° C. with a water-bathing constant temperature vibrator. The timekeeping began and the sampling time points were set at 0 minute and 60 minutes.
(4) Sample group: 70 μL of β-NADPH solution (10 mM) and 70 μL of compound working solution (10 μM) were added to 560 μL of the mixed solution of step (2). The total reaction volume was 700 μL. The resulting mixture was vortexed for 30 seconds to mix well. A duplicate sample was prepared. The sample was incubated at 37° C. with a water-bathing constant temperature vibrator. The timekeeping began and the sampling time points were set at 0 minute, 5 minutes, 10 minutes, 20 minutes, 30 minutes, and 60 minutes after timekeeping.
(5) After vortexing for 3 minutes, the sample was centrifuged at 4000 rpm for 10 minutes.
(6) 50 μL of the supernatant was taken and 150 μL of water was added. The resulting mixture was vortexed to mix well, and analyzed by LC/MS/MS.
The half-life (t1/2) and clearance rate (Cl) were calculated using the following first-order kinetic formula:
Vd=1/protein content in liver microsome
Note: k was the slope of the logarithm of the remaining amount of the compound versus time, and Vd was the apparent distribution volume.

pIC50 [1] | half-life at 1 μM [2] | microsomal CLint at 1 μM [2] | SMILES
7.89 | 6.42 h | 3.6 µL/min/mg | COc1cc2nccc(Oc3ccc(NC(=O)c4nn(C(C)C)cc(-c5ccc(F)cc5)c4=O)nc3)c2cc1OC [Compound 15, N-(5-((6,7-dimethoxyquinolin-4-yl)oxy)pyridin-2-yl)-5-(4-fluorophenyl)-1-isopropyl-4-oxo-1,4-dihydropyridazine-3-carboxamide]
7.92 | 3.22 h | 7.2 µL/min/mg | COc1cc2nccc(Oc3ccc(NC(=O)c4nn(C(C)C)cc(-c5ccc(F)cc5)c4=O)cn3)c2cc1OC [Compound 29, N-(6-((6,7-dimethoxyquinolin-4-yl)oxy)pyridin-3-yl)-1-isopropyl-4-oxo-5-para-fluorophenyl-1,4-dihydropyridazine-3-carboxamide]
7.92 | 8.88 h | 2.6 µL/min/mg | COc1cc2nccc(Oc3ncc(NC(=O)c4nn(C5CC5)cc(-c5ccc(F)cc5)c4=O)cn3)c2cc1OC [Compound 37, 1-cyclopropyl-N-(2-((6,7-dimethoxyquinolin-4-yl)oxy)pyrimidine-5-yl)-5-para-fluorophenyl-4-oxo-1,4-dihydropyridazine-3-carboxamide]
7.92 | 1.63 h | 14.2 µL/min/mg | COc1cc2nccc(Oc3cnc(NC(=O)c4nn(C(C)C)cc(-c5ccc(F)cc5)c4=O)nc3)c2cc1OC [Compound 16, N-(5-((6,7-dimethoxyquinolin-4-yl)oxy)pyrimidine-2-yl)-5-(4-fluorophenyl)-1-isopropyl-4-oxo-1,4-dihydropyridazine-3-carboxamide]
